Measured values: patent US11858942B2, “Triazolotriazine derivatives as A2A receptor antagonists” (ZHEJIANG VIMGREEN PHARMACEUTICALS, LTD., priority 2018, dated 2024)

biological target: T1, A2AR (hADORA2A-HEK293 cells) (Homo sapiens, UniProt P29274); experiment: functional cAMP production assay (NECA-stimulated cAMP production, TR-FRET); assay type: cell-based; conditions: inhibition of NECA (EC80)-stimulated cAMP production in A2AR-expressing HEK293 cells; read-out: A2AR Potency
T1 construct: expressed in transfected cells; host or cells: HEK293 (hADORA2A-HEK293)
Description: The antagonistic activities of the triazolotriazine derivatives of the present invention were measured in a functional cAMP production assay. The assay consists of NECA stimulation of cAMP production and its inhibition by A2AR antagonists in A2AR-expressing HEK293 cells (hADORA2A-HEK293). All cells were cultured in complete medium at 37° C. in 5% CO2. The cells were detached with pancreatin and collected at 200 g for 5 min. After resuspending the cells in fresh complete medium, the cell viability is counted using the trypan blue exclusion method. […] After the cells were diluted with Hank's buffered saline solution containing HEPES (5 mM), BSA stabilizer (0.1%) and […] Rolipram (10 μM), cells were loaded into white opaque 384-well plates (˜500 cells/well, 10 μl/well) and incubated with test compound at a suitable concentration range (11 concentrations) for 20 min at room temperature. Then the A2A receptor agonist NECA (final concentration=EC80, which was determined in the same experiment slightly earlier) was added to the sample and the mixture was incubated again for 30 min at 37° C. […] The inhibition rate (%) was calculated according to the following formula. The IC50 values were calculated from concentration−inhibition (%) curves after log transformation.

T1 sequence (P29274 whole entry): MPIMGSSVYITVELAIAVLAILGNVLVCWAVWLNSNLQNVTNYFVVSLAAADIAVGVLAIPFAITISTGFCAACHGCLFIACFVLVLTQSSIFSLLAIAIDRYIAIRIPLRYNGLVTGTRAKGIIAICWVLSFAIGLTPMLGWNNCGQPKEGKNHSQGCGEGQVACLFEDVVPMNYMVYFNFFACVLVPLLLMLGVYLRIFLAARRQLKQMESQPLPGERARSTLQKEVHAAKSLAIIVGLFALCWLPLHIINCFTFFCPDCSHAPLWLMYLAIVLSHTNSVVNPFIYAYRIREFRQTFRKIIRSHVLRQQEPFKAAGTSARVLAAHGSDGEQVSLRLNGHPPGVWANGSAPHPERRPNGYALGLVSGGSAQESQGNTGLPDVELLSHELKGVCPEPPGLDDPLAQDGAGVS

| IC50 | Compound |
| --- | --- |
| 43.4 nM | Nc1nc(NCCc2ccc(C(=O)NCCN3CCCC3)cc2)nc2nc(-c3ccco3)nn12 [Example 11, 4-(2-((7-Amino-2-(furan-2-yl)-[1,2,4]triazolo[1,5-a][1,3,5]triazin-5-yl)amino)ethyl)-N-(2-(pyrrolidin-1-yl)ethyl)benzamide] |
| 27.1 nM | Nc1nc(NCCc2ccc(C(=O)NCCN3CCOCC3)cc2)nc2nc(-c3ccco3)nn12 [Example 12, 4-(2-((7-Amino-2-(furan-2-yl)-[1,2,4]triazolo[1,5-a][1,3,5]triazin-5-yl)amino)ethyl)-N-(2-morpholinoethyl)benzamide] |
| 33 nM | CN1CCN(CCNC(=O)c2ccc(CCNc3nc(N)n4nc(-c5ccco5)nc4n3)cc2)CC1 [Example 13, 4-(2-((7-Amino-2-(furan-2-yl)-[1,2,4]triazolo[1,5-a][1,3,5]triazin-5-yl)amino)ethyl)-N-(2-(4-methylpiperazin-1-yl)ethyl)benzamide] |
| 24 nM | Nc1nc(NCCc2ccc(C(=O)N3CCC(F)(F)CC3)cc2)nc2nc(-c3ccco3)nn12 [Example 16, (4-(2-((7-Amino-2-(furan-2-yl)-[1,2,4]triazolo[1,5-a][1,3,5]triazin-5-yl)amino)ethyl)phenyl)-(4,4-difluoropiperidin-1-yl)methanone] |
| 7.54 nM | Nc1nc(NCCc2ccc(C(=O)N3CCC(F)CC3)cc2)nc2nc(-c3ccco3)nn12 [Example 17, (4-(2-((7-Amino-2-(furan-2-yl)-[1,2,4]triazolo[1,5-a][1,3,5]triazin-5-yl)amino)ethyl)phenyl)-(4-fluoropiperidin-1-yl)methanone] |
| 9.08 nM | Nc1nc(NCCc2ccc3cnccc3c2)nc2nc(-c3ccco3)nn12 [Example 27, 2-(Furan-2-yl)-N5-(2-(isoquinolin-6-yl)ethyl)-[1,2,4]triazolo[1,5-a][1,3,5]triazine-5,7-diaminee] |
| 13.8 nM | CNC(=O)c1ccc(CCNc2nc(N)n3nc(-c4ccco4)nc3n2)cc1 [Example 35, 4-(2-(7-Amino-2-(furan-2-yl)-[1,2,4]triazolo[1,5-a][1,3,5]triazin-5-ylamino)ethyl)-N-methylbenzamide] |
| 13.3 nM | NC(=O)c1ccc(CCNc2nc(N)n3nc(-c4ccco4)nc3n2)cc1 [Example 36, 4-(2-(7-Amino-2-(furan-2-yl)-[1,2,4]triazolo[1,5-a][1,3,5]triazin-5-ylamino)ethyl)benzamide] |
| 6 nM | Nc1nc(NCCc2ccc(C(=O)N3CCCCC3)cc2)nc2nc(-c3ccco3)nn12 [Example 37, (4-(2-(7-Amino-2-(furan-2-yl)-[1,2,4]triazolo[1,5-a][1,3,5]triazin-5-ylamino)ethyl)-phenyl)(piperidin-1-yl)methanone] |
| 19.3 nM | CC(C)N(C)C(=O)c1ccc(CCNc2nc(N)n3nc(-c4ccco4)nc3n2)cc1 [Example 42, 4-(2-(7-Amino-2-(furan-2-yl)-[1,2,4]triazolo[1,5-a][1,3,5]triazin-5-ylamino)ethyl)-N-isopropyl-N-methylbenzamide] |
| 17.1 nM | CC(C)(CO)NC(=O)c1ccc(CCNc2nc(N)n3nc(-c4ccco4)nc3n2)cc1 [Example 43, 4-(2-(7-Amino-2-(furan-2-yl)-[1,2,4]triazolo[1,5-a][1,3,5]triazin-5-ylamino)ethyl)-N-(1-hydroxy-2-methylpropan-2-yl)benzamide] |
| 27.4 nM | Nc1nc(NCCc2ccc(C(=O)N3CCc4ncccc4C3)cc2)nc2nc(-c3ccco3)nn12 [Example 45, (4-(2-(7-Amino-2-(furan-2-yl)-[1,2,4]triazolo[1,5-a][1,3,5]triazin-5-ylamino)ethyl)phenyl)-(7,8-dihydro-1,6-naphthyridin-6(5H)-yl)methanone] |
| 14.5 nM | Nc1nc(NCCc2ccc(-c3nn[nH]n3)cc2)nc2nc(-c3ccco3)nn12 [Example 125, N5-(4-(2H-Tetrazol-5-yl)phenethyl)-2-(furan-2-yl)-[1,2,4]triazolo[1,5-a][1,3,5]triazine-5,7-diamine] |
